Source: patent publication US20140073651A1, “BENZAMIDE DERIVATIVES AS P2X7 RECEPTOR ANTAGONISTS” (Actelion Pharmaceuticals Ltd., priority 2011, published 2014)

biological target: T1, human recombinant P2X7 receptor (Homo sapiens, UniProt Q99572); test: YO-PRO assay (YO-PRO-1 uptake) in HEK cells stably expressing P2X7; format: cell-based; conditions: HEK-293 cells expressing human recombinant P2X7 receptor; ATP 250 μM, 90 minutes; YO-PRO-1 fluorescence (FLIPR tetra); read-out: IC50 (antagonistic activity with respect to the P2X7 receptor)
T1 construct: expressed in transfected cells
T1 sequence (Q99572 1-595): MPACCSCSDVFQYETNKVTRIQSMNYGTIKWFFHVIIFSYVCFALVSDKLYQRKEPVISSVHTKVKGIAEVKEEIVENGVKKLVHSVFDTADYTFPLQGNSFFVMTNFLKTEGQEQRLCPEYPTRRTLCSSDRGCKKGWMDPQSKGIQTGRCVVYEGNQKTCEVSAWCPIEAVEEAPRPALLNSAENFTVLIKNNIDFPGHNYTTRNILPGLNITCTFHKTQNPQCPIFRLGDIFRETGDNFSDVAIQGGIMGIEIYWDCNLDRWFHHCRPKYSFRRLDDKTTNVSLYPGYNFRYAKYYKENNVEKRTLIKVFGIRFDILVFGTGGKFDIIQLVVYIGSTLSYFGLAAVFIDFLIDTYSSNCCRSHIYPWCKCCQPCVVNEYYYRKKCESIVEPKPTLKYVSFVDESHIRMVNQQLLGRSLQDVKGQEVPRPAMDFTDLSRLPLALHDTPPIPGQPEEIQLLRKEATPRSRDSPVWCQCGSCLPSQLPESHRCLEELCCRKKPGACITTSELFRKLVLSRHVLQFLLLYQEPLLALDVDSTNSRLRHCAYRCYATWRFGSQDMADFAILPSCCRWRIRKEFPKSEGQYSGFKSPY
Protocol: Cell line generation was performed in general according to established molecular cloning protocols. Specifically, RNA was extracted from human whole blood using the Qiagen RNeasy kit (Qiagen, CH) according to the manufacturer's instructions. Subsequently cDNA was made (Superscript II, Invitrogen AG, CH) and the human P2X7 gene (genbank ref. BC011913) was amplified with the following primers: [NT] and [NT] The amplified sequence was subsequently ligated into a pcDNA3.1 (+) NotI, NheI digested plasmid. […] Following a 24 h exposure to DNA, cells were trypsinized and re-seeded at low density in the presence of 250 μg Geneticin. Geneticin resistant cells were then selected during two consecutive rounds of cloning by serial limiting dilution with visual inspection. Individual clones were screened for P2X7 expression by applying ATP and recording the resultant uptake of YO-[…]. Specific cell clones were chosen based on RNA and protein expression. HEK cells stably expressing P2X7 were used to screen drugs using the YO-[…] assay. Cells were grown to confluency in adherent culture at 37° C. in a humidified 5% CO2 incubator (split 1/5 every 3-4 days with DMEM, 10% FCS, 1% Penicillin/Streptomycin, 250 μg/ml Geneticin). Adherent cells were detached by incubation with Trypsine (1 ml per 165 cm^2 dish) for 2 minutes, then washed off with 10 ml PBS (without Mg^2+ and Ca^2+), and resuspended in DMEM, 10% FCS, 1% Penicillin/Streptomycin, no Geneticin. 10'000 cells per well (48 hours before the assay) or 25'000 cells per well (Vi-cell XR (Beckman Coulter) (24 hours before the assay) in 50 μl full medium were seeded on 384-well black-wall, clear bottom plates, that were coated before with 10 μl per well Poly-L-Lysine, incubated for 30-60 minutes at 37° C. and washed once with PBS. Medium was removed from cells and 50 μl of assay buffer containing 0.5 μM YO-[…] was added into the wells. Solutions of antagonist compounds were prepared by serial dilutions of a 10 mM DMSO solution of the antagonist into PBS using a BioMek (Beckman Coulter). Each concentration was performed in duplicate. […] During this time period, four time points were taken. Each time point comprised the average of several measurements made within a few seconds. […] The FLIPR tetra was equipped with Molecular Devices Screen Works system control software to define and run experimental protocols. […] For IC50 measurements the maximum intensity is plotted against the concentration of compound to determine IC50 values.

First: COc1nccc(Cc2ccc(Cl)c(C(=O)NCC3(O)CCCCC3)c2)n1 [Example 148, 2-Chloro-N-(1-hydroxy-cyclohexylmethyl)-5-(2-methoxy-pyrimidin-4-ylmethyl)-benzamide]
Second: COCCN(c1ccc(Cl)c(C(=O)NCC2(O)CCCCC2)c1)c1ccnc(OC)n1 [Example 34, 2-Chloro-N-(1-hydroxy-cyclohexylmethyl)-5-[(2-methoxy-ethyl)-(2-methoxy-pyrimidin-4-yl)-amino]-benzamide]
The IC50 of the first is 2.5-fold lower: 343 nM for the first, 860 nM for the second. The first is the more potent here.

CN(c1ccccc1)c1ccc(Cl)c(C(=O)NCC2(O)CCCCC2)c1 [Example 2, 2-Chloro-N-(1-hydroxy-cyclohexylmethyl)-5-(methyl-phenyl-amino)-benzamide] and CN(c1ccc(Cl)c(C(=O)NCC2(O)CCCCC2)c1)c1ccnn1C [Example 101, 2-Chloro-N-(1-hydroxy-cyclohexylmethyl)-5-[methyl-(2-methyl-2H-pyrazol-3-yl)-amino]-benzamide] are within 1.5-fold of each other in IC50: 315 nM for the first, 319 nM for the second.

First: COCCn1c(Nc2ccc(Cl)c(C(=O)NCC3(O)CCCCC3)c2)cccc1=O [Example 97, 2-Chloro-N-(1-hydroxy-cyclohexylmethyl)-5-[1-(2-methoxy-ethyl)-6-oxo-1,6-dihydro-pyridin-2-ylamino]-benzamide]
Second: Cn1cccc(Nc2ccc(Cl)c(C(=O)NCC3(O)CCCCC3)c2)c1=O [Example 99, 2-Chloro-N-(1-hydroxy-cyclohexylmethyl)-5-(1-methyl-2-oxo-1,2-dihydro-pyridin-3-ylamino)-benzamide]
The IC50 of the first is 2.1-fold higher: 317 nM for the first, 148 nM for the second. The second is the more potent here.

Going from CN(c1ccc(Cl)c(C(=O)NCC2(O)CCCCC2)c1)c1cc(=O)[nH]cn1 [Example 68, 2-Chloro-N-(1-hydroxy-cyclohexylmethyl)-5-[methyl-(6-oxo-1,6-dihydro-pyrimidin-4-yl)-amino]-benzamide] to Cc1ccc(N(C)c2ccnc(Cl)n2)cc1C(=O)NCC1(O)CCCCC1 [Example 153, 5-[(2-Chloro-pyrimidin-4-yl)-methyl-amino]-N-(1-hydroxy-cyclohexylmethyl)-2-methyl-benzamide], the IC50 rises from 288 nM to 702 nM (2.4-fold). The first is the more potent here.

First: CNc1cncc(Oc2ccc(Cl)c(C(=O)NCC3(O)CCCCC3)c2)n1 [Example 124, 2-Chloro-N-(1-hydroxy-cyclohexylmethyl)-5-(6-methylamino-pyrazin-2-yloxy)-benzamide]
Second: COc1cccc(Oc2ccc(Cl)c(C(=O)NCC3(O)CCCCC3)c2)n1 [Example 111, 2-Chloro-N-(1-hydroxy-cyclohexylmethyl)-5-(6-methoxy-pyridin-2-yloxy)-benzamide]
The IC50 of the first is 7.8-fold higher: 163 nM for the first, 21 nM for the second.

Going from CC(C)N(c1ccc(Cl)c(C(=O)NCC2(O)CCCCC2)c1)c1ccnc(Cl)n1 [Example 24, 2-Chloro-5-[(2-chloro-pyrimidin-4-yl)-isopropyl-amino]-N-(1-hydroxy-cyclohexylmethyl)-benzamide] to COC1(CNC(=O)c2cc(N(C)c3ccnc(Cl)n3)ccc2Cl)CCCCC1 [Example 51, 2-Chloro-5-[(2-chloro-pyrimidin-4-yl)-methyl-amino]-N-(1-methoxy-cyclohexylmethyl)-benzamide], the IC50 rises from 236 nM to 460 nM (1.9-fold).

Going from O=C(NCC1(O)CCCCC1)c1cc(Nc2ccncn2)ccc1Cl [Example 8, 2-Chloro-N-(1-hydroxy-cyclohexylmethyl)-5-(pyrimidin-4-ylamino)-benzamide] to O=C(NCC1(O)CCCCC1)c1cc(Oc2ccccn2)ccc1Cl [Example 105, 2-Chloro-N-(1-hydroxy-cyclohexylmethyl)-5-(pyridin-2-yloxy)-benzamide], the IC50 falls from 459 nM to 47 nM (9.8-fold).

Going from O=C(NCC1(O)CCCCC1)c1cc(Cn2ccc(=O)[nH]c2=O)ccc1Cl [Example 144, 2-Chloro-5-(2,4-dioxo-3,4-dihydro-2H-pyrimidin-1-ylmethyl)-N-(1-hydroxy-cyclohexylmethyl)-benzamide] to COc1nccc(N(CCOc2ccccc2)c2ccc(Cl)c(C(=O)NCC3(O)CCCCC3)c2)n1 [Example 40, 2-Chloro-N-(1-hydroxy-cyclohexylmethyl)-5-[(2-methoxy-pyrimidin-4-yl)-(2-phenoxy-ethyl)-amino]-benzamide], the IC50 falls from 1390 nM to 588 nM (2.4-fold). The second is the more potent here.
